Measurements published in ChEMBL document CHEMBL1201862, “PubChem BioAssay data set” (2004).
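Method: 48-hour compound exposure of cells in 96-well plates, five concentrations, linear interpolation of endpoints. GI50 marks 50% less growth.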 Activity calls are given as the source filed them. Rule as the data show it: active = GI50 up to about 1.1 µM and inactive = higher.

Columns and labels:
Test in all cases: DTP human tumour cell line panel, 48 h
A498 = tested on: A498
A549 = tested on: A549
CAKI-1 = tested on: CAKI-1
CCRF-CEM = tested on: CCRF-CEM
COLO 205 = tested on: COLO 205
DLD-1 = tested on: DLD-1
DMS-114 = tested on: DMS-114
DMS-273 = tested on: DMS-273
HCT-116 = tested on: HCT-116
HCT-15 = tested on: HCT-15
HL-60 = tested on: HL-60
HOP-62 = tested on: HOP-62
HOP-92 = tested on: HOP-92
HT-29 = tested on: HT-29
IGROV-1 = tested on: IGROV-1
K562 = tested on: K562
KM-20L2 = tested on: KM-20L2
KM12 = tested on: KM12
LOX IMVI = tested on: LOX IMVI
LXFL 529 = tested on: LXFL 529
M14 = tested on: M14
M19-MEL = tested on: M19-MEL
MOLT-4 = tested on: MOLT-4
Malme-3M = tested on: Malme-3M
NCI-H226 = tested on: NCI-H226
NCI-H23 = tested on: NCI-H23
NCI-H460 = tested on: NCI-H460
NCI-H522 = tested on: NCI-H522
OVCAR-3 = tested on: OVCAR-3
OVCAR-4 = tested on: OVCAR-4
OVCAR-5 = tested on: OVCAR-5
RPMI-8226 = tested on: RPMI-8226
RXF 393 = tested on: RXF 393
RXF 631 = tested on: RXF 631
SF-268 = tested on: SF-268
SF-295 = tested on: SF-295
SF-539 = tested on: SF-539
SK-MEL-5 = tested on: SK-MEL-5
SK-OV-3 = tested on: SK-OV-3
SN12C = tested on: SN12C
SNB-19 = tested on: SNB-19
SNB-75 = tested on: SNB-75
SNB-78 = tested on: SNB-78
SR = tested on: SR
SW-620 = tested on: SW-620
TK-10 = tested on: TK-10
U-251 = tested on: U-251
UACC-257 = tested on: UACC-257
UACC-62 = tested on: UACC-62
UO-31 = tested on: UO-31
XF498 = tested on: XF498
786-0 = tested on: 786-0
ACHN = tested on: ACHN
EKVX = tested on: EKVX
HCC 2998 = tested on: HCC 2998
OVCAR-8 = tested on: OVCAR-8
SK-MEL-28 = tested on: SK-MEL-28
SK-MEL-2 = tested on: SK-MEL-2
HOP-18 = tested on: HOP-18

In the case of Oc1cc2cc(O)nc(O)c2c(O)n1, the GI50 (A498) is reported as > 100 µM (inactive), the GI50 (A549) is reported as > 100 µM (inactive) and the GI50 (CAKI-1) is reported as > 100 µM (inactive). The GI50 (CCRF-CEM) was > 100 µM (inactive), the GI50 (COLO 205) was > 100 µM (inactive) and the GI50 (DLD-1) was > 100 µM (inactive). For the same molecule, the GI50 (DMS-114) was > 100 µM (inactive), the GI50 (DMS-273) was > 100 µM (inactive) and the GI50 (HCT-116) was > 100 µM (inactive). For the same molecule, the GI50 (HCT-15) was over 100 µM, the GI50 (HL-60) was > 100 µM (inactive) and the GI50 (HOP-62) was > 100 µM (inactive). For the same molecule, the GI50 (HOP-92) was > 100 µM (inactive), the GI50 (HT-29) was > 100 µM (inactive) and the GI50 (IGROV-1) was > 100 µM (inactive). The GI50 (K562) was > 100 µM (inactive), the GI50 (KM-20L2) was > 100 µM (inactive) and the GI50 (KM12) was > 100 µM (inactive). For the same molecule, the GI50 (LOX IMVI) was > 100 µM (inactive), the GI50 (LXFL 529) was > 100 µM (inactive) and the GI50 (M14) was > 100 µM (inactive). For the same molecule, the GI50 (M19-MEL) was > 100 µM (inactive), the GI50 (MOLT-4) was > 100 µM (inactive) and the GI50 (Malme-3M) was > 100 µM (inactive). For the same molecule, the GI50 (NCI-H226) was > 100 µM (inactive), the GI50 (NCI-H23) was > 100 µM (inactive) and the GI50 (NCI-H460) was > 100 µM (inactive). For the same molecule, the GI50 (NCI-H522) was > 100 µM (inactive), the GI50 (OVCAR-3) was > 100 µM (inactive) and the GI50 (OVCAR-4) was > 100 µM (inactive). For the same molecule, the GI50 (OVCAR-5) was > 100 µM (inactive), the GI50 (RPMI-8226) was > 100 µM (inactive) and the GI50 (RXF 393) was > 100 µM (inactive). For the same molecule, the GI50 (RXF 631) was > 100 µM (inactive), the GI50 (SF-268) was > 100 µM (inactive) and the GI50 (SF-295) was > 100 µM (inactive). For the same molecule, the GI50 (SF-539) was > 100 µM (inactive), the GI50 (SK-MEL-5) was > 100 µM (inactive) and the GI50 (SK-OV-3) was > 100 µM (inactive). For the same molecule, the GI50 (SN12C) was > 100 µM (inactive), the GI50 (SNB-19) was > 100 µM (inactive) and the GI50 (SNB-75) was > 100 µM (inactive). For the same molecule, the GI50 (SNB-78) was > 100 µM (inactive), the GI50 (SR) was > 100 µM (inactive) and the GI50 (SW-620) was > 100 µM (inactive). The GI50 (TK-10) was > 100 µM (inactive), the GI50 (U-251) was > 100 µM (inactive) and the GI50 (UACC-257) was > 100 µM (inactive). For the same molecule, the GI50 (UACC-62) was > 100 µM (inactive), the GI50 (UO-31) was > 100 µM (inactive) and the GI50 (XF498) was > 100 µM (inactive).
CS(=O)(=O)c1c(N)c2nc(Cl)cn2c2nc3ccccc3nc12 was tested, and the GI50 (786-0) was 62.4 µM (inactive), the GI50 (A549) was > 100 µM (inactive) and the GI50 (ACHN) was > 100 µM (inactive). For the same molecule, the GI50 (CAKI-1) was > 100 µM (inactive), the GI50 (CCRF-CEM) was > 100 µM (inactive) and the GI50 (COLO 205) was > 100 µM (inactive). For the same molecule, the GI50 (DLD-1) was > 100 µM (inactive), the GI50 (DMS-114) was > 100 µM (inactive) and the GI50 (DMS-273) was > 100 µM (inactive). For the same molecule, the GI50 (EKVX) was > 100 µM (inactive), the GI50 (HCC 2998) was > 100 µM (inactive) and the GI50 (HCT-116) was > 100 µM (inactive). For the same molecule, the GI50 (HCT-15) was over 100 µM, the GI50 (HOP-62) was > 100 µM (inactive) and the GI50 (HT-29) was > 100 µM (inactive). The GI50 (IGROV-1) was > 100 µM (inactive), the GI50 (K562) was > 100 µM (inactive) and the GI50 (KM-20L2) was > 100 µM (inactive). The GI50 (KM12) was > 100 µM (inactive), the GI50 (LOX IMVI) was > 100 µM (inactive) and the GI50 (LXFL 529) was > 100 µM (inactive). For the same molecule, the GI50 (M14) was > 100 µM (inactive), the GI50 (M19-MEL) was > 100 µM (inactive) and the GI50 (MOLT-4) was > 100 µM (inactive). For the same molecule, the GI50 (Malme-3M) was > 100 µM (inactive), the GI50 (NCI-H226) was > 100 µM (inactive) and the GI50 (NCI-H23) was 68.9 µM (inactive). For the same molecule, the GI50 (NCI-H460) was > 100 µM (inactive), the GI50 (NCI-H522) was 48 µM (inactive) and the GI50 (OVCAR-3) was > 100 µM (inactive). The GI50 (OVCAR-4) was > 100 µM (inactive), the GI50 (OVCAR-5) was > 100 µM (inactive) and the GI50 (OVCAR-8) was 57.8 µM (inactive). The GI50 (RPMI-8226) was > 100 µM (inactive), the GI50 (RXF 631) was > 100 µM (inactive) and the GI50 (SF-268) was > 100 µM (inactive). For the same molecule, the GI50 (SF-295) was > 100 µM (inactive), the GI50 (SF-539) was > 100 µM (inactive) and the GI50 (SK-MEL-28) was > 100 µM (inactive). The GI50 (SK-MEL-2) was > 100 µM (inactive), the GI50 (SK-MEL-5) was > 100 µM (inactive) and the GI50 (SK-OV-3) was > 100 µM (inactive). The GI50 (SN12C) was > 100 µM (inactive), the GI50 (SNB-19) was > 100 µM (inactive) and the GI50 (SNB-75) was 81.3 µM (inactive). For the same molecule, the GI50 (SNB-78) was > 100 µM (inactive), the GI50 (SR) was > 100 µM (inactive) and the GI50 (SW-620) was > 100 µM (inactive). For the same molecule, the GI50 (U-251) was > 100 µM (inactive), the GI50 (UACC-257) was > 100 µM (inactive) and the GI50 (UACC-62) was > 100 µM (inactive). The GI50 (UO-31) was > 100 µM (inactive) and the GI50 (XF498) was > 100 µM (inactive).
With O=C(C#Cc1cnc(O)nc1O)c1ccccc1 the GI50 (786-0) was 12.2 µM (inactive), the GI50 (A498) was 15.5 µM (inactive) and the GI50 (A549) was 24.7 µM (inactive). For the same molecule, the GI50 (ACHN) was 14.5 µM (inactive), the GI50 (CAKI-1) was 18.2 µM (inactive) and the GI50 (CCRF-CEM) was 1.97 µM (inactive). For the same molecule, the GI50 (COLO 205) was 7.23 µM (inactive), the GI50 (DLD-1) was 11.3 µM (inactive) and the GI50 (DMS-114) was 15.1 µM (inactive). For the same molecule, the GI50 (DMS-273) was 14.9 µM (inactive), the GI50 (EKVX) was 12 µM (inactive) and the GI50 (HCC 2998) was 18.3 µM (inactive). The GI50 (HCT-116) was 7 µM (inactive), the GI50 (HCT-15) was 12.3 µM and the GI50 (HL-60) was 3.3 µM (inactive). For the same molecule, the GI50 (HOP-18) was 15.7 µM (inactive), the GI50 (HOP-62) was 18.5 µM (inactive) and the GI50 (HOP-92) was 13.2 µM (inactive). For the same molecule, the GI50 (HT-29) was 21.8 µM (inactive), the GI50 (IGROV-1) was 17.9 µM (inactive) and the GI50 (K562) was 2.98 µM (inactive). The GI50 (KM12) was 15.2 µM (inactive), the GI50 (LOX IMVI) was 4.42 µM (inactive) and the GI50 (M14) was 5.2 µM (inactive). For the same molecule, the GI50 (M19-MEL) was 9.48 µM (inactive), the GI50 (MOLT-4) was 2.48 µM (inactive) and the GI50 (Malme-3M) was 3.34 µM (inactive). For the same molecule, the GI50 (NCI-H226) was 24.8 µM (inactive), the GI50 (NCI-H23) was 13.7 µM (inactive) and the GI50 (NCI-H460) was 14.1 µM (inactive). For the same molecule, the GI50 (OVCAR-3) was 2.09 µM (inactive), the GI50 (OVCAR-4) was 14.1 µM (inactive) and the GI50 (OVCAR-5) was 18.9 µM (inactive). The GI50 (OVCAR-8) was 10.5 µM (inactive), the GI50 (RPMI-8226) was 7.76 µM (inactive) and the GI50 (RXF 393) was 1.7 µM (inactive). For the same molecule, the GI50 (RXF 631) was 14 µM (inactive), the GI50 (SF-268) was 13.6 µM (inactive) and the GI50 (SF-295) was 35.9 µM (inactive). The GI50 (SF-539) was 4.04 µM (inactive), the GI50 (SK-MEL-28) was 10.9 µM (inactive) and the GI50 (SK-MEL-2) was 12.1 µM (inactive). The GI50 (SK-MEL-5) was 12.7 µM (inactive), the GI50 (SK-OV-3) was 27.3 µM (inactive) and the GI50 (SN12C) was 4.37 µM (inactive). The GI50 (SNB-19) was 17.3 µM (inactive), the GI50 (SNB-75) was 18.2 µM (inactive) and the GI50 (SNB-78) was 10.4 µM (inactive). The GI50 (SW-620) was 6.76 µM (inactive), the GI50 (TK-10) was 13.8 µM (inactive) and the GI50 (U-251) was 13.9 µM (inactive). The GI50 (UACC-257) was 11.5 µM (inactive), the GI50 (UACC-62) was 7.28 µM (inactive) and the GI50 (UO-31) was 17.4 µM (inactive).
